{"source": "patent US11802133B2", "about": "“Heterocyclic compounds as monoacylglycerol lipase inhibitors” (Hoffmann-La Roche Inc., priority 2018, dated 2023)", "data": [{"target": "MAGL (recombinant wild-type) (Homo sapiens (Human), UniProt Q99685)", "sequence (Q99685 whole entry, species assumed)": "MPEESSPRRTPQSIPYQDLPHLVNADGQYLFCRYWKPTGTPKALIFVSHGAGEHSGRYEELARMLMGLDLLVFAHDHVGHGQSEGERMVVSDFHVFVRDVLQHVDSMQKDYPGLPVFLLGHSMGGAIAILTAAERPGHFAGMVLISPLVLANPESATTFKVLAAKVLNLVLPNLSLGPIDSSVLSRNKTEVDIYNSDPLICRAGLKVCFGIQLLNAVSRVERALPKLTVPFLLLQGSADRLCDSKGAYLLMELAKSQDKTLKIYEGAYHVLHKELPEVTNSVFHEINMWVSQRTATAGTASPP", "assay": "4-NPA assay: MAGL inhibitory activity by hydrolysis of 4-nitrophenylacetate (absorbance at 405 nm)", "format": "biochemical", "conditions": "measured in 4-NPA assay (footnote [a]); 1 nM MAGL, 300 μM 4-nitrophenylacetate", "experimental": "This assay is hereinafter abbreviated “4-NPA assay”.\nThe plate was shaked for 1 min at 2000 rpm (Variomag Teleshake) and then incubated for 15 min at RT. […] The final concentrations in the assay were 1 nM MAGL and 300 μM 4-Nitrophenylacetate. […] A second measurement was then done after incubation for 80 min at RT. From the two measurements, the slope was calculated by subtracting the first from the second measurement.", "units": {"IC50": "µM"}, "values": [{"smiles": "O=C1CO[C@H]2CCN(C(=O)N3CC(OCc4ccc(C(F)(F)F)cc4F)C3)C[C@H]2N1", "note": "[Example 27]", "IC50": 0.007}, {"smiles": "O=C1CO[C@H]2CCN(C(=O)N3CC(OCc4cc(C(F)(F)F)c(F)cc4F)C3)C[C@H]2N1", "note": "[Example 112]", "IC50": 0.012}, {"smiles": "N#Cc1ccc(OCC2CCN(C(=O)N3CC[C@@H]4OCC(=O)N[C@@H]4C3)CC2)c(Cl)c1", "note": "[Example 59]", "IC50": 0.012}, {"smiles": "O=C1CO[C@H]2CCN(C(=O)N3CCC(Cc4nc5ccccc5o4)CC3)C[C@H]2N1", "note": "[Example 72]", "IC50": 0.108}, {"smiles": "CC1C(OCc2ccc(C(F)(F)F)cc2)CN1C(=O)N1CC[C@@H]2OCC(=O)N[C@@H]2C1", "note": "(single isomer, unassigned) [Example 104]", "IC50": 0.451}, {"smiles": "O=C1CO[C@H]2CCN(C(=O)N3CCC(COc4ccc(Cl)cc4)CC3)C[C@H]2N1", "note": "[Example 9]", "IC50": 0.035}, {"smiles": "O=C1CO[C@H]2CCN(C(=O)N3CCC(Cc4ccc(Cl)cc4)CC3)C[C@H]2N1", "note": "[Example 10]", "IC50": 0.039}, {"smiles": "CC(C)(C)c1csc(CC2CCN(C(=O)N3CC[C@@H]4OCC(=O)N[C@@H]4C3)CC2)n1", "note": "[Example 1, (+)-(4aR,8aS)-6-(4-((4-(tert-Butyl)thiazol-2-yl)methyl)piperidine-1-carbonyl)hexahydro-2H-pyrido[4,3-b][1,4]oxazin-3(4H)-one]", "IC50": 0.04}, {"smiles": "CC(C)(C)c1cnc(CC2CCN(C(=O)N3CC[C@@H]4OCC(=O)N[C@@H]4C3)CC2)o1", "note": "[Example 38]", "IC50": 0.16}, {"smiles": "CC(C)(C)c1coc(CC2CCN(C(=O)N3CC[C@@H]4OCC(=O)N[C@@H]4C3)CC2)n1", "note": "[Example 2]", "IC50": 0.046}, {"smiles": "O=C1CO[C@H]2CCN(C(=O)N3CCC(Cc4nc5c(s4)CCC5)CC3)C[C@H]2N1", "note": "[Example 16]", "IC50": 0.208}, {"smiles": "O=C1CO[C@H]2CCN(C(=O)N3CCC(COc4ccc(Cl)cc4)C3)C[C@H]2N1", "note": "(some centres unmarked) [Example 96]", "IC50": 0.293}, {"smiles": "O=C1CO[C@@H]2CCN(C(=O)N3CCC(COc4ccc(OC(F)(F)F)cc4Cl)CC3)C[C@@H]2N1", "note": "[Example 45]", "IC50": 0.85}, {"smiles": "O=C1CO[C@H]2CCN(C(=O)N3CCC(Oc4cccc(C(F)(F)F)c4)CC3)C[C@H]2N1", "note": "[Example 44]", "IC50": 0.038}, {"smiles": "CC1C(OCc2ccc(C(F)(F)F)cc2)CN1C(=O)N1CC[C@@H]2OCC(=O)N[C@@H]2C1", "note": "(some centres unmarked) [Example 117]", "IC50": 0.01}, {"smiles": "O=C1CO[C@H]2CCN(C(=O)N3CC(OCc4ccc(C(F)(F)F)cc4)C3)C[C@H]2N1", "note": "[Example 76]", "IC50": 0.008}, {"smiles": "O=C1CO[C@H]2CCN(C(=O)N3CCC(Cc4ccc(C(F)(F)F)cc4C4CCCC4)CC3)C[C@H]2N1", "note": "[Example 58]", "IC50": 0.003}, {"smiles": "CC(C)(C)c1csc(CC2CCN(C(=O)N3CC[C@@H]4OCC(=O)N[C@@H]4C3)CC2)n1", "note": "(racemic) [Example 3, rac-(4aR,8aS)-6-[4-[(4-tert-Butylthiazol-2-yl)methyl]piperidine-1-carbonyl]-4,4a,5,7,8,8a-hexahydropyrido[4,3-b][1,4]oxazin-3-one]", "IC50": 0.066}, {"smiles": "O=C1CO[C@H]2CCN(C(=O)N3CCC(Cc4ccc(C(F)(F)F)cc4)CC3)C[C@H]2N1", "note": "[Example 8]", "IC50": 0.013}, {"smiles": "O=C1CO[C@H]2CCN(C(=O)N3CCC(COc4ccc(OC(F)(F)F)cc4Cl)CC3)C[C@H]2N1", "note": "[Example 46]", "IC50": 0.005}, {"smiles": "O=C1CO[C@H]2CCN(C(=O)N3CCC(OCc4ccc(Cl)cc4)C3)C[C@H]2N1", "note": "(some centres unmarked) [Example 97]", "IC50": 0.146}, {"smiles": "O=C1CO[C@H]2CCN(C(=O)N3CCC(Oc4ccc(C(F)(F)F)cc4)CC3)C[C@H]2N1", "note": "[Example 13]", "IC50": 0.087}, {"smiles": "O=C1CO[C@@H]2CCN(C(=O)N3CCC(Cn4cc(C(F)(F)F)cn4)CC3)C[C@@H]2N1", "note": "(stereo in doubt) [Example 26, (4aS,8aR)-6-(4-((4-(Trifluoromethyl)-1H-pyrazol-1-yl)methyl)piperidine-1-carbonyl)hexahydro-2H-pyrido[4,3-b][1,4]oxazin-3(4H)-one]", "IC50": 0.684}, {"smiles": "O=C1CO[C@H]2CCN(C(=O)N3CCC(Cc4ccc(C(F)(F)F)cc4N4CCCC4)CC3)C[C@H]2N1", "note": "[Example 53]", "IC50": 0.006}, {"smiles": "O=C1CO[C@@H]2CCN(C(=O)N3CC(OCc4ccc(C(F)(F)F)cc4F)C3)C[C@@H]2N1", "note": "[Example 30]", "IC50": 0.273}, {"smiles": "O=C1CO[C@H]2CCN(C(=O)N3CCC(Cc4ccc(C(F)(F)F)cc4)CC3)C[C@@H]2N1", "note": "[Example 14]", "IC50": 0.191}, {"smiles": "CC1C(OCc2ccc(C(F)(F)F)cc2)CN1C(=O)N1CC[C@@H]2OCC(=O)N[C@@H]2C1", "note": "(single isomer, unassigned) [Example 103]", "IC50": 0.005}, {"smiles": "O=C1CO[C@H]2CCN(C(=O)N3CCC(OCc4cccc(Cl)c4)C3)C[C@H]2N1", "note": "(some centres unmarked) [Example 94]", "IC50": 0.15}, {"smiles": "O=C1CO[C@H]2CCN(C(=O)N3CCC(Cn4cnc(C(F)(F)F)c4)CC3)C[C@H]2N1", "note": "[Example 60]", "IC50": 0.68}, {"smiles": "O=C1CO[C@H]2CCN(C(=O)N3CC(OCc4cc(F)cc(C(F)(F)F)c4)C3)C[C@H]2N1", "note": "[Example 101]", "IC50": 0.011}, {"smiles": "O=C1CO[C@H]2CCN(C(=O)N3CCN(Cc4ccc(Cl)cc4)CC3)C[C@H]2N1", "note": "[Example 22]", "IC50": 2.1}, {"smiles": "O=C1CO[C@H]2CCN(C(=O)N3CCC(COc4ccc(F)cc4Cl)CC3)C[C@H]2N1", "note": "[Example 24]", "IC50": 0.004}, {"smiles": "O=C1CO[C@H]2CCN(C(=O)N3CCC(Cc4ccc(C(F)(F)F)cc4)CC3)C[C@H]2N1", "note": "(racemic) [Example 11, rac-(4aR,8aS)-6-[4-[[4-(Trifluoromethyl)phenyl]methyl]piperidine-1-carbonyl]-4,4a,5,7,8,8a-hexahydropyrido[4,3-b][1,4]oxazin-3-one]", "IC50": 0.042}, {"smiles": "O=C1CO[C@H]2CCN(C(=O)N3CC(OCc4cc(C(F)(F)F)ccc4F)C3)C[C@H]2N1", "note": "[Example 113]", "IC50": 0.005}, {"smiles": "O=C1CO[C@H]2CCN(C(=O)N3CCC(Cc4ccc(Cl)cc4)CC3)C[C@H]2N1", "note": "[Example 35]", "IC50": 0.019}, {"smiles": "CC(C)(C)c1cnn(CC2CCN(C(=O)N3CC[C@@H]4OCC(=O)N[C@@H]4C3)CC2)c1", "note": "[Example 66]", "IC50": 0.351}, {"smiles": "O=C1CO[C@H]2CCN(C(=O)N3CCC(Oc4ccc(C(F)(F)F)cc4Cl)CC3)C[C@H]2N1", "note": "[Example 40]", "IC50": 0.012}, {"smiles": "O=C1CO[C@H]2CCN(C(=O)N3CCC(Cc4ccc(C(F)(F)F)cc4)CC3)C[C@@H]2N1", "note": "[Example 17]", "IC50": 0.268}, {"smiles": "O=C1CO[C@H]2CCN(C(=O)N3CCC(COc4ccc(Cl)cc4F)CC3)C[C@H]2N1", "note": "[Example 50]", "IC50": 0.008}, {"smiles": "O=C1CO[C@H]2CCN(C(=O)N3CC(OCc4ccc(Cl)cc4C(F)(F)F)C3)C[C@H]2N1", "note": "[Example 116]", "IC50": 0.004}, {"smiles": "O=C1CO[C@H]2CCN(C(=O)N3CC(COc4ccc(C(F)(F)F)cc4F)C3)C[C@H]2N1", "note": "[Example 47]", "IC50": 0.005}, {"smiles": "Cc1cc(F)ccc1OCC1CCN(C(=O)N2CC[C@@H]3OCC(=O)N[C@@H]3C2)CC1", "note": "[Example 61]", "IC50": 0.011}, {"smiles": "C[C@H]1CN(C(=O)N2CC[C@@H]3OCC(=O)N[C@@H]3C2)CC[C@H]1COc1ccc(F)cc1Cl", "note": "[Example 74]", "IC50": 0.003}, {"smiles": "O=C1CO[C@H]2CCN(C(=O)N3CCC(Cc4ccc(Cl)c(F)c4)CC3)C[C@H]2N1", "note": "[Example 33]", "IC50": 0.004}, {"smiles": "CC(C)(C)c1csc(CC2CCN(C(=O)N3CC[C@H]4OCC(=O)N[C@H]4C3)CC2)n1", "note": "[Example 5]", "IC50": 1.3}, {"smiles": "O=C1CO[C@H]2CCN(C(=O)N3CC(OCc4ccc(OC(F)(F)F)cc4F)C3)C[C@H]2N1", "note": "[Example 77]", "IC50": 0.016}, {"smiles": "CC1(COc2ccc(F)cc2Cl)CCN(C(=O)N2CC[C@@H]3OCC(=O)N[C@@H]3C2)CC1", "note": "[Example 79, (4aR,8aS)-6-(4-((2-chloro-4-fluorophenoxy)methyl)-4-methylpiperidine-1-carbonyl)hexahydro-2H-pyrido[4,3-b][1,4]oxazin-3(4H)-one]", "IC50": 0.001}]}]}
